From patent US10219516B2, “Molecules having pesticidal utility, and intermediates, compositions, and processes, related thereto” (priority 2015, dated 2019)

Key:
Assay type in all cases: in vivo
[1] = tested on: Yellow Fever Mosquito (Aedes aegypti, AEDSAE); test: Bioassay on Yellow Fever Mosquito (YFM), 96-well plate larval assay; conditions: Yellow Fever Mosquito, 96-well plate larval assay
Procedure, shortened: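 Compound stocks at 4000 ppm in DMSO were diluted with 90:10 water/acetone, and 15 μL aliquots were dispensed into six replicate plates. About 1-day-old larvae in liver-powder water were added per well. Plates were covered and held at room temperature for 3 days before each well was scored for mortality.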

[2] = tested on: Beet Armyworm (Spodoptera exigua, LAPHEG); test: Bioassay on Beet Armyworm (BAW), 128-well diet tray assay; conditions: Beet Armyworm, 128-well diet tray assay, read-out: BAW rating
Procedure, shortened: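 Second-instar larvae, one to five per well, placed on artificial diet surface-treated with 50 μg/cm^2 compound applied in 90:10 acetone-water and dried. Held 5–7 days at 25° C., 14:10 light-dark. Percent mortality recorded per well and averaged over eight wells.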

[3] = tested on: Cabbage Looper (Trichoplusia ni, TRIPNI); test: Bioassay on Cabbage Looper (CL), 128-well diet tray assay; conditions: Trichoplusia ni; Cabbage Looper, 128-well diet tray assay; read-out: CL rating
Procedure, shortened: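 Mortality of second instar larvae exposed to diet coated with 50 μg/cm^2 compound (acetone-water 90:10 vehicle, dried); 25° C., 5–7 days.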

Row | SMILES | YFM rating [1] | pest or weed control at 50 µg/cm2 [2] [%] | pest or weed control at 50 µg/cm2 [3] [%]
1 | Cn1ccc2cc(NC(=O)c3cc(NC(=O)[C@H]4[C@H](c5cc(Cl)cc(Cl)c5)C4(Cl)Cl)ccc3Cl)cnc21 (relative stereo) [F464, 2-Chloro-5-(trans)-(2,2-dichloro-3-(3,5-dichlorophenyl)cyclopropane-1-carboxamido)-N-(1-methyl-1H-pyrrolo[2,3-b]pyridin-5-yl)benzamide] | A (80-100) | 50 to 100 | 50 to 100
2 | CC(=O)N(C(C)=O)c1ccc(NC(=O)c2cc(NC(=O)[C@H]3[C@H](c4cc(Cl)cc(Cl)c4)C3(Cl)Cl)ccc2Cl)c(C#N)c1 (relative stereo) [F469, trans-N-(4-(N-acetylacetamido)-2-cyanophenyl)-2-chloro-5-(2,2-dichloro-3-(3,5-dichlorophenyl)cyclopropane-1-carboxamido)benzamide] | A (80-100) | 50 to 100 | 50 to 100
3 | O=C1Cc2cc(NC(=O)c3cc(NC(=O)[C@H]4[C@H](c5cc(Cl)cc(Cl)c5)C4(Cl)Cl)ccc3Cl)ccc2N1 (relative stereo) [F472, 2-Chloro-5-(trans)-(2,2-dichloro-3-(3,5-dichlorophenyl)cyclopropane-1-carboxamido)-N-(2-oxoindolin-5-yl)benzamide] | A (80-100) | 50 to 100 | 50 to 100
4 | CN1CCc2cc(NC(=O)c3cc(NC(=O)[C@H]4[C@H](c5cc(Cl)cc(Cl)c5)C4(Cl)Cl)ccc3Cl)ccc21 (relative stereo) [F473, 2-Chloro-5-(trans)-(2,2-dichloro-3-(3,5-dichlorophenyl)cyclopropane-1-carboxamido)-N-(1-methylindolin-5-yl)benzamide] | A (80-100) | 50 to 100 | 50 to 100
5 | O=C(Nc1cc2cc[nH]c2cn1)c1cc(NC(=O)[C@H]2[C@H](c3cc(Cl)cc(Cl)c3)C2(Cl)Cl)ccc1Cl (relative stereo) [F474, 2-Chloro-5-(trans)-(2,2-dichloro-3-(3,5-dichlorophenyl)cyclopropane-1-carboxamido)-N-(1H-pyrrolo[2,3-c]pyridin-5-yl)benzamide] | A (80-100) | 50 to 100 | 50 to 100
6 | Cn1ncc2cc(NC(=O)c3cc(NC(=O)[C@H]4[C@H](c5cc(Cl)cc(Cl)c5)C4(Cl)Cl)ccc3Cl)cnc21 (relative stereo) [F476, 2-Chloro-5-(trans)-(2,2-dichloro-3-(3,5-dichlorophenyl)cyclopropane-1-carboxamido)-N-(1-methyl-1H-pyrazolo[3,4-b]pyridin-5-yl)benzamide] | A (80-100) | 50 to 100 | 50 to 100
7 | Cc1ccc2c(N)nn(C(=O)c3cc(NC(=O)[C@H]4[C@H](c5cc(Cl)cc(Cl)c5)C4(Cl)Cl)ccc3Cl)c2c1 (relative stereo) [F477, (trans)-N-(3-(3-Amino-6-methyl-1H-indazole-1-carbonyl)-4-chlorophenyl)-2,2-dichloro-3-(3,5-dichlorophenyl)cyclopropane-1-carboxamide] | A (80-100) | 50 to 100 | 50 to 100
8 | Cc1ccc2c(NC(=O)c3cc(NC(=O)[C@H]4[C@H](c5cc(Cl)cc(Cl)c5)C4(Cl)Cl)ccc3Cl)n[nH]c2c1 (relative stereo) [F478, 2-Chloro-5-(trans)-(2,2-dichloro-3-(3,5-dichlorophenyl)cyclopropane-1-carboxamido)-N-(6-methyl-1H-indazol-3-yl)benzamide] | A (80-100) | 50 to 100 | 50 to 100
9 | Nc1ccc2c(c1)CN(C(=O)c1cc(NC(=O)[C@H]3[C@H](c4cc(Cl)cc(Cl)c4)C3(Cl)Cl)ccc1Cl)C2 (relative stereo) [F479, (trans)-N-(3-(5-Aminoisoindoline-2-carbonyl)-4-chlorophenyl)-2,2-dichloro-3-(3,5-dichlorophenyl)cyclopropane-1-carboxamide] | A (80-100) | 50 to 100 | 50 to 100
10 | Cc1cc(N2C(=O)C=CC2=O)ccc1NC(=O)c1cc(NC(=O)[C@H]2[C@H](c3cc(Cl)cc(Cl)c3)C2(Cl)Cl)ccc1Cl (relative stereo) [F480, 2-chloro-5-(trans-2,2-dichloro-3-(3,5-dichlorophenyl)cyclopropane-1-carboxamido)-N-(4-(2,5-dioxo-2,5-dihydro-1H-pyrrol-1-yl)-2-methylphenyl)benzamide] | A (80-100) | 50 to 100 | 50 to 100
11 | O=C(Nc1ccc2scnc2c1)c1cc(NC(=O)[C@H]2[C@H](c3cc(Cl)cc(Cl)c3)C2(Cl)Cl)ccc1Cl (relative stereo) [F482, trans-N-(Benzo[d]thiazol-5-yl)-2-chloro-5-(2,2-dichloro-3-(3,5-dichlorophenyl)cyclopropane-1-carboxamido)benzamide] | A (80-100) | 50 to 100 | 50 to 100
12 | CCOC(=O)c1cc2cc(NC(=O)c3cc(NC(=O)[C@H]4[C@H](c5cc(Cl)cc(Cl)c5)C4(Cl)Cl)ccc3Cl)ccc2[nH]1 (relative stereo) [F483, Ethyl 5-(2-chloro-5-(trans)(2,2-dichloro-3-(3,5-dichlorophenyl)cyclopropane-1-carboxamido)benzamido)-1H-indole-2-carboxylate] | A (80-100) | 50 to 100 | 50 to 100
13 | Cc1c(NC(=O)c2cc(NC(=O)[C@H]3[C@H](c4cc(Cl)cc(Cl)c4)C3(Cl)Cl)ccc2Cl)ccc2[nH]ccc12 (relative stereo) [F485, 2-Chloro-5-(trans)-(2,2-dichloro-3-(3,5-dichlorophenyl)cyclopropane-1-carboxamido)-N-(4-methyl-1H-indol-5-yl)benzamide] | A (80-100) | 50 to 100 | 50 to 100
14 | CC(C)(C)c1cc2cc(NC(=O)c3cc(NC(=O)[C@H]4[C@H](c5cc(Cl)cc(Cl)c5)C4(Cl)Cl)ccc3Cl)ccc2[nH]1 (relative stereo) [F486, N-(2-(tert-Butyl)-1H-indol-5-yl)-2-chloro-5-(trans)-(2,2-dichloro-3-(3,5-dichlorophenyl)cyclopropane-1-carboxamido)benzamide] | A (80-100) | 50 to 100 | 50 to 100
15 | CCn1ccc2cc(NC(=O)c3cc(NC(=O)[C@H]4[C@H](c5cc(Cl)cc(Cl)c5)C4(Cl)Cl)ccc3Cl)ccc21 (relative stereo) [F488, 2-Chloro-5-(trans)-(2,2-dichloro-3-(3,5-dichlorophenyl)cyclopropane-1-carboxamido)-N-(1-ethyl-1H-indol-5-yl)benzamide] | A (80-100) | 50 to 100 | 50 to 100
16 | CN1C(=O)CCc2cc(NC(=O)c3cc(NC(=O)[C@H]4[C@H](c5cc(Cl)cc(Cl)c5)C4(Cl)Cl)ccc3Cl)ccc21 (relative stereo) [F490, 2-chloro-5-(trans)-(2,2-dichloro-3-(3,5-dichlorophenyl)cyclopropane-1-carboxamido)-N-(1-methyl-2-oxo-1,2,3,4-tetrahydroquinolin-6-yl)benzamide] | A (80-100) | 50 to 100 | 50 to 100
17 | CN1CCCc2cc(NC(=O)c3cc(NC(=O)[C@H]4[C@H](c5cc(Cl)cc(Cl)c5)C4(Cl)Cl)ccc3Cl)ccc21 (relative stereo) [F491, 2-Chloro-5-(trans)-(2,2-dichloro-3-(3,5-dichlorophenyl)cyclopropane-1-carboxamido)-N-(1-methyl-1,2,3,4-tetrahydroquinolin-6-yl)benzamide] | A (80-100) | 50 to 100 | 50 to 100
18 | O=C(Nc1ccc2c(c1)CCCN2)c1cc(NC(=O)[C@H]2[C@H](c3cc(Cl)cc(Cl)c3)C2(Cl)Cl)ccc1Cl (relative stereo) [F492, 2-Chloro-5-(trans)-(2,2-dichloro-3-(3,5-dichlorophenyl)cyclopropane-1-carboxamido)-N-(1,2,3,4-tetrahydroquinolin-6-yl)benzamide] | A (80-100) | 50 to 100 | 50 to 100
19 | N#Cc1ccc2c(N)nn(C(=O)c3cc(NC(=O)[C@H]4[C@H](c5cc(Cl)cc(Cl)c5)C4(Cl)Cl)ccc3Cl)c2c1 (relative stereo) [F493, trans-N-(3-(3-Amino-6-cyano-1H-indazole-1-carbonyl)-4-chlorophenyl)-2,2-dichloro-3-(3,5-dichlorophenyl)cyclopropane-1-carboxamide] | A (80-100) | 50 to 100 | 50 to 100
20 | CC(=O)Nc1cccc(NC(=O)c2cc(NC(=O)[C@H]3[C@H](c4cc(Cl)cc(Cl)c4)C3(Cl)Cl)ccc2Cl)n1 (relative stereo) [F494, N-(6-Acetamidopyridin-2-yl)-2-chloro-5-(trans-2,2-dichloro-3-(3,5-dichlorophenyl)cyclopropane-1-carboxamido)benzamide] | A (80-100) | 50 to 100 | 50 to 100
